Data taken from paper PMC11872639 (Food Chemistry: Molecular Sciences, 2025).
Where two headings read alike, the source gives them in different places.

Legend:
[1] = biological target: T1, TAS1R2/TAS1R3 (Homo sapiens, UniProt Q7RTX0+Q8TE23); test: Calcium mobilization assay, HEK293T-Gα16gust44 cells expressing TAS1R2/TAS1R3; assay type: cell-based
T1 construct: we performed functional expression of the full-length heterodimeric sweet taste TAS1R2/TAS1R3 receptor using HEK293-derived cells; expressed in transfected cells; host or cells: HEK293T-Gα16gust44 cells transfected with pcDNA6-TAS1R2 and pcDNA4-TAS1R3
T1 sequence (Q8TE23 20-839): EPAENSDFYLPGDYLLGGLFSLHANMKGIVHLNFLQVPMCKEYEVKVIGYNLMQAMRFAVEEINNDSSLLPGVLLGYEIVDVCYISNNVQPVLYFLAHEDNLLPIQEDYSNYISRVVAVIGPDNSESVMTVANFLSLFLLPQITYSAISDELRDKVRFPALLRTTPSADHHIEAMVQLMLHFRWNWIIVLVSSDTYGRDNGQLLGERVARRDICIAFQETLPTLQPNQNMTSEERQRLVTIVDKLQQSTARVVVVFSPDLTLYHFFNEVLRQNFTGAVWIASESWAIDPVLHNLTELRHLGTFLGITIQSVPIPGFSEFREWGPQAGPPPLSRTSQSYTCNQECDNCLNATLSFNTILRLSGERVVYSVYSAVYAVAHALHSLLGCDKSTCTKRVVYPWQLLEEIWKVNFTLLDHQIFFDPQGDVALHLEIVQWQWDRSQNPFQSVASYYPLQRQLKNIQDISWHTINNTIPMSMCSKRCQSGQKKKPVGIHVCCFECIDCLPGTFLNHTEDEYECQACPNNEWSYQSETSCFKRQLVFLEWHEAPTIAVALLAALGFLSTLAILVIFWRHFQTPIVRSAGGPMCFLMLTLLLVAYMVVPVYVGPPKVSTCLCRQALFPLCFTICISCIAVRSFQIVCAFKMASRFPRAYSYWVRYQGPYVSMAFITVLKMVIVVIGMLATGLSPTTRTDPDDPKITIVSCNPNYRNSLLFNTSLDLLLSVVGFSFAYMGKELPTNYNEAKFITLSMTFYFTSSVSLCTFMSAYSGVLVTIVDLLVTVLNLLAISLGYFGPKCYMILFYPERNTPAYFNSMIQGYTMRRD
T1 sequence (Q7RTX0 21-852): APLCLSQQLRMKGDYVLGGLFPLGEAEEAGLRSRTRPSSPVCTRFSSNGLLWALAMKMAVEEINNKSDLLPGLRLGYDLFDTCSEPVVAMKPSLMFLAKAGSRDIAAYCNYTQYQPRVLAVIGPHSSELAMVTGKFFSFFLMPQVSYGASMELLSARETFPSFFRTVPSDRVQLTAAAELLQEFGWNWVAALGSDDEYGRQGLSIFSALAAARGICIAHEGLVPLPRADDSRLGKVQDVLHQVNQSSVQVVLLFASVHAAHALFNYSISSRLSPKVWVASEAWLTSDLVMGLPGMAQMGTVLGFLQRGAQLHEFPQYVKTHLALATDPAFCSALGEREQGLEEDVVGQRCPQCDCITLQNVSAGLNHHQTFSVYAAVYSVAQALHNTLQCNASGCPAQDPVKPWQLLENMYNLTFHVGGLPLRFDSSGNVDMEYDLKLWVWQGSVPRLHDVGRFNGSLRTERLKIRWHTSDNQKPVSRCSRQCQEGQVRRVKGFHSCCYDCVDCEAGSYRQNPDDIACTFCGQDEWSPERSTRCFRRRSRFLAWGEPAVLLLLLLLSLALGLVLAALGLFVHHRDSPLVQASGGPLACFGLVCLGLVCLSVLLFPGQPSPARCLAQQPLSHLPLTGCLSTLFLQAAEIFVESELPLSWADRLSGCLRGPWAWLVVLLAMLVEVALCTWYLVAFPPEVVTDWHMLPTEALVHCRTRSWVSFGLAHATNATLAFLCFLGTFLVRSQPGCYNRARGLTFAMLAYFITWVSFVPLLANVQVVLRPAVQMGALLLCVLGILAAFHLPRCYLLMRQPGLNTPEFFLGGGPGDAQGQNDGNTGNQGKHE
Experimental: (§1) The synthetic cDNA optimized for human TAS1R2 and TAS1R3 expression was cloned into the pcDNA6-myc-HisA and pcDNA4-myc-HisA vectors, generating the pcDNA6-TAS1R2 and pcDNA4-TAS1R3 plasmids, respectively (Genewiz).
(§2) The stable HEK293T-Gα16gust44 cells were constructed by stable transfection of pcDNA3.1/Hygro-Gα16gust44 plasmid into HEK293T cells using Lipofectamine 2000 (Invitrogen). After 48 h, the cells were selected with 400 μg/mL hygromycin for 2–3 weeks. Thirty individual hygromycin-resistant colonies were expanded and screened for functional expression after transient co-transfection with pcDNA6-TAS1R2 and pcDNA4-TAS1R3 and measurement of calcium responses to sucralose. In the same way, clone selection was done under zeocin selection (250 μg/mL) to generate a stable HEK293T-Gα16gust44-TAS1R3 cell line for further calcium mobilization assays.
(§3) Forty-eight hours before the assay, HEK293T-Gα16gust44 or HEK293T-Gα16gust44-TAS1R3 cells were plated (4 × 10^4 cells/well) on poly-D-lysine-coated 96-well plates. Twenty-four hours later, cells were transiently transfected with pcDNA6-TAS1R2 and pcDNA4-TAS1R3 with Lipofectamine 2000 according to the manufacturer's instructions. As a negative control, HEK293T cells were mock-transfected with the empty expression vector. […] The fluorescence intensity was measured for 90 s after the addition of the compounds. […] All concentration-receptor combinations were measured in triplicate, and each experiment was repeated at least four times. The Ca^2+ changes are expressed as fractional changes in fluorescence light intensity: ΔF/F0 = (F—F0)/F0, where F is the fluorescence light intensity at each point and F0 is the value of emitted fluorescent light before the stimulus application. For the calculation of dose-response relationships, the changes in fluorescence upon stimulus application were averaged, mock-subtracted and baseline-corrected. The resulting dose-response data were fitted using a four-parameter logistic equation. The half-maximal effective concentrations (EC50 values) were calculated using SigmaPlot software.

[2] = biological target: T2, TAS1R3 (Homo sapiens, UniProt Q7RTX0); test: Calcium mobilization assay, HEK293T-Gα16gust44 cells stably expressing TAS1R3 alone; assay type: cell-based
T2 construct: we performed functional expression of the full-length heterodimeric sweet taste TAS1R2/TAS1R3 receptor using HEK293-derived cells; expressed in transfected cells
T2 sequence (Q7RTX0 21-852): T1 sequence (Q7RTX0 21-852)
Experimental: as §1, §2, §3

[3] = biological target: T3, TAS1R1-VFT (Homo sapiens, UniProt Q7RTX1); test: Ligand binding by intrinsic tryptophan fluorescence, TAS1R1-VFT
T3 construct: followed by TAS1R1-VFT (Phe21-Ser495) or TAS1R2-VFT (Ala22-Ser493) and a second His6-tag; His6-tag (thrombin-cleavable) (N); made in house
T3 sequence (Q7RTX1 21-495): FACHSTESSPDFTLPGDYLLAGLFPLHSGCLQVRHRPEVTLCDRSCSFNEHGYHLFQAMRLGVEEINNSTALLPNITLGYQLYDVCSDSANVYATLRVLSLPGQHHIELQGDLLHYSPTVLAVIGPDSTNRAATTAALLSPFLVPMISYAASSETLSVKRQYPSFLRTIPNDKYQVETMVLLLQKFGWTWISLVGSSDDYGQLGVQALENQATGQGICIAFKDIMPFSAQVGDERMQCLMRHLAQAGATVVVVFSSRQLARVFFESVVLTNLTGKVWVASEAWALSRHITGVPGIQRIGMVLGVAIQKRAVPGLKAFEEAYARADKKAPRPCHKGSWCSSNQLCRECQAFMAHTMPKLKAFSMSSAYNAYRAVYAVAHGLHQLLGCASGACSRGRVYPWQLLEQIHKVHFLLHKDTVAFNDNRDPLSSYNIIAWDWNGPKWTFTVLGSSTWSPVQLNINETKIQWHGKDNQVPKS
Experimental: The intrinsic fluorescence of TAS1R-VFTs was measured using a Cary Eclipse spectrofluorometer (Varian Instruments, Palo Alto, CA, USA) equipped with a Peltier temperature control unit. […] Ligand solutions were freshly prepared in the same buffer. […] The temperature was kept constant at 20 °C. Fluorescence measurements were corrected for dilution, bleaching and nonspecific buffer quenching. Kd values and standard errors were calculated from a plot of the ratio between the fluorescence intensity variation and the maximum of fluorescence intensity variation versus concentration of total ligand, obtained with a standard non-linear regression method and using a one-site saturation ligand binding equation within SigmaPlot software (version 15.0, Grafiti, Palo Alto, CA, USA). […] The Kd values of ligand-receptor interactions were determined using the equation ΔF/ΔFmax = Bmax [L]/(Kd + [L]), where Kd is the apparent dissociation constant, ΔF is the difference between the fluorescence intensity at a given concentration of ligand and the fluorescence intensity in the absence of ligand, ΔFmax is the difference at infinite ligand concentration [L], Bmax is the maximum fluorescence signal, and [L] corresponds to the concentration of ligands. The reported Kd values are the average of six measurements performed on at least three independently refolded protein samples. […]

[4] = biological target: T4, TAS1R3-VFT (Homo sapiens, UniProt Q7RTX0); test: Ligand binding by intrinsic tryptophan fluorescence, TAS1R3-VFT
T4 construct: pET28-TAS1R3-VFT encodes an N-terminal His6-tag followed by TAS1R3-VFT (Ala21-Ser497) and the Strep-tag II; made in house
T4 sequence (Q7RTX0 21-497): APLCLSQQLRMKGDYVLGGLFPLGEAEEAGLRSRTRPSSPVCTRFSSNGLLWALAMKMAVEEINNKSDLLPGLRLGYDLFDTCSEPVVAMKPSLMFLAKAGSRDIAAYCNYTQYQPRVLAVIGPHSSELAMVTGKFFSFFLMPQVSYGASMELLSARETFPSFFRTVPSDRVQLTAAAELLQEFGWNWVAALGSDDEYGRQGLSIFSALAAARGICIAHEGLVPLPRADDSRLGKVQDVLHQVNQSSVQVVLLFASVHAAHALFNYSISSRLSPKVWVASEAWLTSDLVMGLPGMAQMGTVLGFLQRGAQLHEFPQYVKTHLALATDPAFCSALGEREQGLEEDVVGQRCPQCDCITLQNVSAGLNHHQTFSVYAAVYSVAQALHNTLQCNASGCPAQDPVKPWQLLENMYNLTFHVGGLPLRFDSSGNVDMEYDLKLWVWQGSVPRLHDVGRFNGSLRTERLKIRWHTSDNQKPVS
Experimental: The intrinsic fluorescence of TAS1R-VFTs was measured using a Cary Eclipse spectrofluorometer (Varian Instruments, Palo Alto, CA, USA) equipped with a Peltier temperature control unit. […] Ligand solutions were freshly prepared in the same buffer. […] The temperature was kept constant at 20 °C. Fluorescence measurements were corrected for dilution, bleaching and nonspecific buffer quenching. Kd values and standard errors were calculated from a plot of the ratio between the fluorescence intensity variation and the maximum of fluorescence intensity variation versus concentration of total ligand, obtained with a standard non-linear regression method and using a one-site saturation ligand binding equation within SigmaPlot software (version 15.0, Grafiti, Palo Alto, CA, USA). […] The Kd values of ligand-receptor interactions were determined using the equation ΔF/ΔFmax = Bmax [L]/(Kd + [L]), where Kd is the apparent dissociation constant, ΔF is the difference between the fluorescence intensity at a given concentration of ligand and the fluorescence intensity in the absence of ligand, ΔFmax is the difference at infinite ligand concentration [L], Bmax is the maximum fluorescence signal, and [L] corresponds to the concentration of ligands. The reported Kd values are the average of six measurements performed on at least three independently refolded protein samples. All compounds were obtained from Sigma-Aldrich. Statistical analyses: Dunnett's test (p ≤ 0.05) was used to determine the statistical significance between data means.

[5] = sweet compound alone (Fig. 3, IMP series)
[6] = sweet compound alone (Fig. 5c,d, MSG series)

Question: How did the EC50 [1, 5] turn out when `C=C(C)C1CC=C(/C=N/O)CC1` (stereo in doubt) [Perillartine, perillartine] was run?
Answer: 24 ± 2 µM

Question: What does the source list for `[Ca+2].[Cl-].[Cl-]` [CaCl2]?
Answer: EC50 ([2]; CaCl2 alone, TAS1R3 alone): 47000 ± 13000 µM; max (maximal amplitude, ΔF/F0) ([2]; CaCl2 alone, TAS1R3 alone): 0.37; max (maximal amplitude, ΔF/F0) ([2]; CaCl2 in the presence of 10 mM IMP, TAS1R3 alone): 0.17; max (maximal amplitude, ΔF/F0) ([2]; CaCl2 in the presence of 10 mM cyclamate, TAS1R3 alone): 0.14; EC50 ([1]; CaCl2 alone, TAS1R2/TAS1R3): 28000 ± 3000 µM; max (maximal amplitude, ΔF/F0) ([1]; CaCl2 alone, TAS1R2/TAS1R3): 0.40; max (maximal amplitude, ΔF/F0) ([1]; CaCl2 in the presence of 10 mM IMP, TAS1R2/TAS1R3): 0.28; max (maximal amplitude, ΔF/F0) ([1]; CaCl2 in the presence of 10 mM cyclamate, TAS1R2/TAS1R3): 0.19

Question: `O=S(=O)(O)NC1CCCCC1` [Cyclamate, cyclamate] was tested. Which “amplitude of the maximum calcium-induced response of TAS1R3 reduced to” value ([2]; modulator at 10 mM, CaCl2 stimulation) did it give?
Answer: ~62%

Question: And the EC50 [1, 5]?
Answer: 2310 ± 954 µM

Question: Which “impact on the fluorescence intensity of TAS1R1-VFT” value ([3]; negative control) does the source give for `N[C@H](CCC(=O)O)C(=O)O` [D-Glu, D-glutamate] here?
Answer: no significant impact

Question: What about the “Kd TAS1R3-VFT” value ([4]; ligand alone, absence of IMP, mean ± SEM, 20 °C, pH 8.0) of the same compound?
Answer: nb

Question: And the “impact on the fluorescence intensity of TAS1R3-VFT” value ([4]; negative control)?
Answer: no significant impact

Question: Which results are given for `N[C@@H](CC(=O)O)C(=O)O` [L-Asp, L-aspartate]?
Answer: Kd [3]: 0.21 ± 0.06 µM; Kd ([4]; read-out: Kd TAS1R3-VFT): 1.18 ± 0.33 µM

Question: With `N[C@@H](CCC(=O)O)C(=O)O` [L-Glu, L-glutamate] as the compound, how does the Kd [4] read?
Answer: 0.75 ± 0.2 µM

Question: For `COc1ccc(CCC(=O)c2c(O)cc(O[C@@H]3O[C@H](CO)[C@@H](O)[C@H](O)[C@H]3O[C@@H]3O[C@@H](C)[C@H](O)[C@@H](O)[C@H]3O)cc2O)cc1O` [NHDC, neohesperidine dihydrochalcone], which EC50 [1, 5] is on record?
Answer: 41 ± 29 µM

Question: Which results are given for `COC(=O)[C@H](Cc1ccccc1)NC(=O)[C@H](CC(=O)O)NCCC(C)(C)C` [Neotame, neotame]?
Answer: EC50 [1, 5]: 0.97 ± 0.12 µM; EC50 ([1]; sweet compound alone (Fig. 5a,b, GMP series)): 0.3 ± 0.08 µM; EC50 [1, 6]: 1.09 ± 0.16 µM

Question: Which results are given for `OC[C@H]1O[C@H](O[C@]2(CCl)O[C@H](CCl)[C@@H](O)[C@@H]2O)[C@H](O)[C@@H](O)[C@H]1Cl` [Sucralose, sucralose]?
Answer: EC50 [1, 5]: 57 ± 13 µM; EC50 [1, 6]: 56 ± 6 µM; decrease in EC50 values by IMP (synergistic effect) ([1]; sweetener with IMP vs sweetener alone): 3 fold
